The target in one assay is T1, Caspase 6 (Homo sapiens, UniProt P55212).
T1 construct: purchased Enzo Biosciences
T1 sequence (P55212 24-179 limits assumed): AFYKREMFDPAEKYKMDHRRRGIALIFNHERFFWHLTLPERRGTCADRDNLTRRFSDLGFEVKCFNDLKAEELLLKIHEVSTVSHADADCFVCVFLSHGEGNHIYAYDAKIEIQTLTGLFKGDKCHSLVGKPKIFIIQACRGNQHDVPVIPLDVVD
T1 sequence (P55212 194-293 limits assumed): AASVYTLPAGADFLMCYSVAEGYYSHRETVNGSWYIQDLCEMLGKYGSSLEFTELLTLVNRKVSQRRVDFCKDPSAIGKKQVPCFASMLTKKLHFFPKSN
Put plainly: Caspase 6 enzymatic inhibition assay, IC50. To be noted: read-out: Caspase 6 enzyme inhibition IC50. It counts as biochemical. The method, then: (§1) Human caspases were purchased from Enzo Biosciences and used according to the manufacturer's instructions. An exemplary caspase assay, for Caspase-1, is provided below:
(§2) Enzymatic assays were conducted for Caspase-3, 6 and 7 activity according to the manufacture's instructions.

Another assay addresses T2, Caspase-3 (Homo sapiens, UniProt P42574).
T2 construct: purchased Enzo Biosciences
T2 sequence (P42574 29-175 limits assumed): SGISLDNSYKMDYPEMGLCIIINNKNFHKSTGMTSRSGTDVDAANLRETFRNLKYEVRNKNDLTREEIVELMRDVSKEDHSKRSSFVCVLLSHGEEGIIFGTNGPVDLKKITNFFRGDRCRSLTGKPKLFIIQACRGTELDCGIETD
T2 sequence (P42574 176-277 limits assumed): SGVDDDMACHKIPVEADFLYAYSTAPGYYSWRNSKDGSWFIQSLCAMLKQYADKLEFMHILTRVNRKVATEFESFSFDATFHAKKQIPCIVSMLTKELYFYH
The experiment in a line: Caspase-3 enzymatic inhibition assay, IC50. It counts as biochemical. To be noted: read-out: Caspase 3 enzyme inhibition IC50. The method, then:
as §1, §2

The next assay addresses T3, Caspase 7 (Homo sapiens, UniProt P55210).
T3 construct: purchased Enzo Biosciences
T3 sequence (P55210 24-198 limits assumed): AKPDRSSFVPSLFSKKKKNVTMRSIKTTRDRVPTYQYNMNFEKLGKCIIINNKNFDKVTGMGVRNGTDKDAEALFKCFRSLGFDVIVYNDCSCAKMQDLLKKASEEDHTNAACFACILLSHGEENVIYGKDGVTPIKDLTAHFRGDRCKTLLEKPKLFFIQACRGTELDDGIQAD
T3 sequence (P55210 207-303 limits assumed): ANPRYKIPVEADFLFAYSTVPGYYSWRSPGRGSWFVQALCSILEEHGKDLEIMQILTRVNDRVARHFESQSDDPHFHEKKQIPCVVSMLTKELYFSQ
Put plainly: Caspase 7 enzymatic inhibition assay, IC50. It counts as biochemical. To be noted: read-out: Caspase 7 enzyme inhibition IC50. The method, then:
as §1, §2

A further assay concerns IL-1β. The experiment in a line: Inhibition of LPS-stimulated IL-1β in THP-1 cells (ELISA). Format: cell-based, human. Conditions: Homo sapiens, 10 micromolar, read-out: Percent Inhibition of IL1-β. As for the experimental part: Compounds in the present invention were tested in THP-1 cells, a human monocyte cell line, to assess the inhibition of the inflammatory cytokine IL-1β. THP-1 cells (ATCC TIB-202) were grown in culture and seeded in 96 well plates at a concentration of 200,000 cells per well with a total volume of 150 μL. Plated cells were incubated overnight at 37 degrees C. under an atmosphere of 5% CO2. Media was removed from cells which were washed with PBS. Test compounds were diluted in DMSO stock solution and serially diluted appropriately for initial screening and IC50 determinations. LPS in serum free media (140 μL of […]) was added to each well to stimulate IL-1β production. IL-1β was measured by ELISA assay kit (R&D Systems) per the manufacturers instructions.
IC50 values for the inhibition of IL-1 in THP 1 cells were determined from dose response studies.

Another assay has as its target T4, Caspase-1 (Homo sapiens, UniProt P29466).
T4 construct: purchased Enzo Biosciences
T4 sequence (P29466 120-297 limits assumed): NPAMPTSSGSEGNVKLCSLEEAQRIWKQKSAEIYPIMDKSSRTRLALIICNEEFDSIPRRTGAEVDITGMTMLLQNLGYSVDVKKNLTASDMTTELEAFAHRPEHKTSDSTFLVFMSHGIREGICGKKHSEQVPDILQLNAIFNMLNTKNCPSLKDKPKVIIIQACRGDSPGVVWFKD
T4 sequence (P29466 317-404 limits assumed): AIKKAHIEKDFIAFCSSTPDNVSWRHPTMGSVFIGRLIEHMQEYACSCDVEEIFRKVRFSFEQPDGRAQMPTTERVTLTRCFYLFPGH
The experiment in a line: Caspase-1 enzyme inhibition assay (Ac-YVAD-pNA substrate), IC50. It counts as biochemical. The method, then: as §1
Caspase-1 was diluted to 10 U/μl in assay buffer consisting of 50 mM HEPES, pH 7.4, 100 mM NaCl, 0.1% CHAPS, 1 mM EDTA, 10% glycerol and 10 mM DTT.
45 μl of assay buffer was added into ½ volume microtiter plate. The plate was allowed to equilibrate to assay temperature. 5 μl of Caspase-1 (10 U/μl) was added to each appropriate well. Two 2 blank wells containing assay buffer alone without Caspase-1 were included on the plate.
The reaction was started by the addition of 50 μl Ac-YVAD-pNA substrate, for a final substrate concentration of 200 μM. The reaction was continuously monitored at 405 nm. The data was graphed as OD405 nm vs time, and the slope was determined over the linear portion of the curve. The rates in OD/min were converted to substrate/min using an extinction coefficient for p-nitroaniline of 10,500M-1 cm-1, and were adjusted for pathlength of sample. […]

The test system of another assay is Jurkat cells. The experiment in a line: Prevention of Fas-induced apoptosis in Jurkat cells (WST-8). It counts as cell-based. Conditions: Homo sapiens, 10 micromolar, read-out: % Prevention of Fas - induced Jurkat cell apoptosis at 10 micromolar. The method, then:
Compounds of the present invention were evaluated in Jurkat cells, a human T-lymphocyte cell line, to evaluate compounds ability to inhibit apoptotic cell death. Jurkat cells, Clone E6-1 (ATCC TIB-152) were grown in culture maintain a cell density between 0.5-2 million cells/mL. Cells were tested for viability and countion with typan blue stain before use. Test compounds were addedd to 96 well plates and Jurkat cells were added at a concentration of approximately 100,000 cells per well and mixed thoroughly by action of pipetting. Plated cells were incubated for 1 hour at 37 degrees C. under an atmosphere of 5% CO2. Anti-Fas antibody was added and mixed by pipet action. Plates were incubated for 20 hours at 37 degrees C. under an atmosphere of 5% CO2. 10 microliters of thawed WST-8 solution was added to each well and incubated for 4 hours. Absorbance was measured at 450 nm and control reading at […] using a SpectraMax ID5 plate reader. Apoptotic cell death is executed by caspases 3, 7 and 6. Compounds that lack activity against these caspases will not prevent the death of Jurkat cells and is a functional test of selectivity for inflammatory over apoptotic caspases.
IC50 values to protect against Fas induced apoptosis and improve survival of Jurkat cells were determined from dose response studies.
For orientation: Tetrazolium assays rely on reduction of a dye to a coloured formazan, in cell work by metabolically active cells.

A value given as a limit tells only on which side of the number the result lay.

As to `C[C@H](NC(=O)C(=O)Nc1c(F)cccc1F)C(=O)N[C@@H](CCOCc1ccccc1)C(=O)COc1c(F)c(F)cc(F)c1F` [Example 1, N^1-((S)-1-(((S)-5-(Benzyloxy)-2-oxo-1-(2,3,5,6-tetrafluorophenoxy)pentan-3-yl)amino)-1-oxopropan-2-yl)-N^2-(2,6-difluorophenyl)oxalamide], the 50% inhibitory concentration (IC50) – broadly, the concentration that inhibits the measured activity by half – at Caspase 6 was not below 1000 nM; at Caspase-3 it was not below 1000 nM; on Caspase 7 it was not below 1000 nM; at Caspase-1 it was 10 to 100 nM. For the same compound, the inhibition at 10 µM is 50 to 90% in the assay on IL-1β and not above 10% in the assay with Jurkat cells.
On to `C[C@H](NC(=O)C(=O)Nc1c(F)cccc1F)C(=O)N[C@@H](CCO)C(=O)COc1c(F)c(F)cc(F)c1F` [Example 2, N^1-(2,6-Difluorophenyl)-N^2—((S)-1-(((S)-5-hydroxy-2-oxo-1-(2,3,5,6-tetrafluorophenoxy)pentan-3-yl)amino)-1-oxopropan-2-yl)oxalamide], for which the IC50 on Caspase 6 is not below 1000 nM; on Caspase-3, not below 1000 nM; at Caspase 7, not below 1000 nM; against Caspase-1 it was 10 to 100 nM. Moreover, the inhibition at 10 µM was 50 to 90% in the assay on IL-1β and not above 10% with Jurkat cells.
As to `C[C@H](NC(=O)C(=O)Nc1c(F)cccc1F)C(=O)N[C@@H](CCOCc1ccc(Cl)cc1)C(=O)COc1c(F)c(F)cc(F)c1F` [Example 3, N^1—((S)-1-(((S)-5-((4-Chlorobenzyl)oxy)-2-oxo-1-(2,3,5,6-tetrafluorophenoxy)pentan-3-yl)amino)-1-oxopropan-2-yl)-N^2-(2,6-difluorophenyl)oxalamide], the IC50 was not below 1000 nM at Caspase 6, not below 1000 nM at Caspase-3, not below 1000 nM at Caspase 7 and 100 to 1000 nM against Caspase-1. For the same compound, the inhibition at 10 µM with IL-1β is 25 to 50%; with Jurkat cells, not above 10%.
In the case of `C[C@H](NC(=O)C(=O)Nc1c(F)cccc1F)C(=O)N[C@@H](CCOCc1ccsc1)C(=O)COc1c(F)c(F)cc(F)c1F` [Example 4, N^1-(2,6-difluorophenyl)-N^2—((S)-1-oxo-1-(((S)-2-oxo-1-(2,3,5,6-tetrafluorophenoxy)-5-(thiophen-3-ylmethoxy)pentan-3-yl)amino)propan-2-yl)oxalamide], the half-maximal inhibitory concentration (IC50) was not below 1000 nM at Caspase 6, not below 1000 nM at Caspase-3, not below 1000 nM at Caspase 7 and 10 to 100 nM against Caspase-1. Also, the figures for the inhibition at 10 µM with IL-1β and in the assay with Jurkat cells were 50 to 90% and not above 10%, respectively.
Regarding `COCC[C@H](NC(=O)[C@H](C)NC(=O)C(=O)Nc1c(F)cccc1F)C(=O)COc1c(F)c(F)cc(F)c1F` [Example 5, N^1-(2,6-Difluorophenyl)-N^2—((S)-1-(((S)-5-methoxy-2-oxo-1-(2,3,5,6-tetrafluorophenoxy)pentan-3-yl)amino)-1-oxopropan-2-yl)oxalamide], the IC50 was not below 1000 nM on Caspase 6, not below 1000 nM at Caspase-3, not below 1000 nM on Caspase 7 and 100 to 1000 nM against Caspase-1. Moreover, the inhibition at 10 µM in the assay with IL-1β is 25 to 50%; in the assay with Jurkat cells, not above 10%.
In the case of `C[C@H](NC(=O)C(=O)Nc1c(F)cccc1F)C(=O)N[C@@H](CCOC(=O)Oc1ccccc1)C(=O)COc1c(F)c(F)cc(F)c1F` [Example 7, (S)-3-((S)-2-(2-((2,6-Difluorophenyl)amino)-2-oxoacetamido)propanamido)-4-oxo-5-(2,3,5,6-tetrafluorophenoxy)pentyl phenyl carbonate], the half-inhibitory concentration (IC50) at Caspase 6 was not below 1000 nM; at Caspase-3, not below 1000 nM; on Caspase 7 it was not below 1000 nM; against Caspase-1 it was 10 to 100 nM. Also, the inhibition at 10 µM with IL-1β is 50 to 90%; in the assay on Jurkat cells, not above 10%.
With `C[C@H](NC(=O)C(=O)Nc1c(F)cccc1F)C(=O)N[C@@H](CCOC(=O)c1ccccc1)C(=O)COc1c(F)c(F)cc(F)c1F` [Example 8, (S)-3-((S)-2-(2-((2,6-Difluorophenyl)amino)-2-oxoacetamido)propanamido)-4-oxo-5-(2,3,5,6-tetrafluorophenoxy)pentyl benzoate], the half-inhibitory concentration (IC50) was not below 1000 nM on Caspase 6, not below 1000 nM at Caspase-3, not below 1000 nM at Caspase 7 and 100 to 1000 nM against Caspase-1. For the same compound, the inhibition at 10 µM with IL-1β was 25 to 50%; in the assay with Jurkat cells, not above 10%.
Regarding `O=C(O)CC[C@H](NC(=O)CNC(=O)C(=O)Nc1c(F)cccc1F)C(=O)COc1c(F)c(F)cc(F)c1F` [Example 9, (S)-4-(2-(2-((2,6-difluorophenyl)amino)-2-oxoacetamido)acetamido)-5-oxo-6-(2,3,5,6-tetrafluorophenoxy)hexanoic acid], the IC50 at Caspase 6 is not below 1000 nM; at Caspase-3 it was not below 1000 nM; on Caspase 7, not below 1000 nM; at Caspase-1, not above 10 nM. Further, the inhibition at 10 µM in the assay with IL-1β was more than 90%; with Jurkat cells, not above 10%.
Regarding `C[C@H](NC(=O)C(=O)Nc1c(F)cccc1F)C(=O)N[C@@H](CCC(=O)O)C(=O)COc1cc(C(F)(F)F)cc(C(F)(F)F)c1` [Example 10, (S)-6-(3,5-bis(trifluoromethyl)phenoxy)-4-((S)-2-(2-((2,6-difluorophenyl)amino)-2-oxoacetamido)propanamido)-5-oxohexanoic acid], the concentration for half-maximal inhibition (IC50) is not below 1000 nM at Caspase 6, not below 1000 nM at Caspase-3, not below 1000 nM at Caspase 7 and not above 10 nM against Caspase-1. Also, the inhibition at 10 µM in the assay with IL-1β was more than 90%; in the assay with Jurkat cells, not above 10%.
With `C[C@H](NC(=O)C(=O)Nc1ccccc1C(C)(C)C)C(=O)N[C@@H](CCC(=O)O)C(=O)COc1c(F)c(F)cc(F)c1F` [Example 11, (S)-4-((S)-2-(2-((2-(tert-Butyl)phenyl)amino)-2-oxoacetamido)propanamido)-5-oxo-6-(2,3,5,6-tetrafluorophenoxy)hexanoic acid], the concentration for half-maximal inhibition (IC50) at Caspase 6 is not below 1000 nM; at Caspase-3, not below 1000 nM; on Caspase 7 it was 100 to 1000 nM; on Caspase-1, not above 10 nM. Besides, the values for the inhibition at 10 µM in the assay on IL-1β and in the assay with Jurkat cells were more than 90% and not above 10%, respectively.

The values above are taken from patent US11597703B2, “Caspase inhibitors and methods of use thereof” (Histogen Inc., priority 2019, dated 2023).
